Measurements as given in ChEMBL document CHEMBL1138423, “TOMOCOMD-CARDD descriptors-based virtual screening of tyrosinase inhibitors: evaluation of different classification model combinations using bond-based linear indices” (Bioorg Med Chem, 2007).

biological target: T1, Tyrosinase (Agaricus bisporus, UniProt O42713); test: Inhibition of mushroom tyrosinase after 10 mins
T1 sequence (O42713 whole entry): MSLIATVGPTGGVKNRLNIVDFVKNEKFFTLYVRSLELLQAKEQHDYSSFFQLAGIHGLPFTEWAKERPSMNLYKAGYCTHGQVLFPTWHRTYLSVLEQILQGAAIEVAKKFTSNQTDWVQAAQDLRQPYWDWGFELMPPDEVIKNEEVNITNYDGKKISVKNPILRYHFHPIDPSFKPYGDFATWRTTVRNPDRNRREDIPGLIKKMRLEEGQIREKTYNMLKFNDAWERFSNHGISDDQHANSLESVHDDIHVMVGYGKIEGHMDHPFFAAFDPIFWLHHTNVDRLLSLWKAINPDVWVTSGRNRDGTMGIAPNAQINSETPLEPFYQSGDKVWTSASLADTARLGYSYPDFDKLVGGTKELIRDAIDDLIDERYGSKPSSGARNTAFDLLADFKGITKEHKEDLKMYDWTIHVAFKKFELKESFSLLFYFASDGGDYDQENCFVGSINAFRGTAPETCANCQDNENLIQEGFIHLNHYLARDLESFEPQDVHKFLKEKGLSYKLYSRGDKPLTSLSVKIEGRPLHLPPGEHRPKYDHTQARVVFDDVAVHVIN

**Q.** With C#CC1(O)CC[C@H]2[C@@H]3CCC4=CC(=O)CC[C@]4(C)[C@H]3CC[C@@]21C (single isomer, unassigned) [ETHISTERONE] as the compound, how does the IC50 read?
**A.** Its IC50 is 2.61 µM.

**Q.** With CC[C@]1(O)CC[C@H]2[C@@H]3CCC4=CC(=O)CC[C@]4(C)[C@H]3CC[C@@]21C as the compound, how does the IC50 read?
**A.** The IC50 was 1.53 µM.

**Q.** For CC[C@]1(O)CC[C@H]2[C@@H]3CCC4=CC(=O)CC[C@]4(C)[C@H]3[C@H](O)C[C@@]21C, which IC50 is on record?
**A.** The IC50 was 1.72 µM.

**Q.** C#CC1(O)CC[C@H]2[C@@H]3CCC4=CC(=O)C=C[C@]4(C)[C@H]3CC[C@@]21C (single isomer, unassigned) was tested. Which IC50 did it give?
**A.** The IC50 was 7.89 µM.

**Q.** Which IC50 does the source give for CC[C@]1(O)CC[C@H]2[C@@H]3CCC4=CC(=O)C=C[C@]4(C)[C@H]3CC[C@@]21C here?
**A.** The IC50 was 3.46 µM.

**Q.** With C#CC1(O)CC[C@H]2[C@@H]3CCC4=CC(=O)CC[C@]4(C)[C@H]3[C@H](O)C[C@@]21C (single isomer, unassigned) as the compound, how does the IC50 read?
**A.** The IC50 was 5.95 µM.
